Assays:
human SGLT2 = target: T1, human SGLT2 (Homo sapiens, UniProt P31639, I433V); assay: Assay for inhibitory effect on human SGLT2 activity (uptake of methyl-α-D-glucopyranoside); assay type: cell-based; details: for IC50: COS-7 cells expressing transiently human SGLT2, uptake of methyl-α-D-(U-14C)glucopyranoside, 37° C., 2 hours
T1 construct: expressed in transfected cells; host or cells: COS-7 cells (RIKEN CELL BANK RCB0539), transient, electroporation of KL29
T1 sequence (P31639 1-672 I433V): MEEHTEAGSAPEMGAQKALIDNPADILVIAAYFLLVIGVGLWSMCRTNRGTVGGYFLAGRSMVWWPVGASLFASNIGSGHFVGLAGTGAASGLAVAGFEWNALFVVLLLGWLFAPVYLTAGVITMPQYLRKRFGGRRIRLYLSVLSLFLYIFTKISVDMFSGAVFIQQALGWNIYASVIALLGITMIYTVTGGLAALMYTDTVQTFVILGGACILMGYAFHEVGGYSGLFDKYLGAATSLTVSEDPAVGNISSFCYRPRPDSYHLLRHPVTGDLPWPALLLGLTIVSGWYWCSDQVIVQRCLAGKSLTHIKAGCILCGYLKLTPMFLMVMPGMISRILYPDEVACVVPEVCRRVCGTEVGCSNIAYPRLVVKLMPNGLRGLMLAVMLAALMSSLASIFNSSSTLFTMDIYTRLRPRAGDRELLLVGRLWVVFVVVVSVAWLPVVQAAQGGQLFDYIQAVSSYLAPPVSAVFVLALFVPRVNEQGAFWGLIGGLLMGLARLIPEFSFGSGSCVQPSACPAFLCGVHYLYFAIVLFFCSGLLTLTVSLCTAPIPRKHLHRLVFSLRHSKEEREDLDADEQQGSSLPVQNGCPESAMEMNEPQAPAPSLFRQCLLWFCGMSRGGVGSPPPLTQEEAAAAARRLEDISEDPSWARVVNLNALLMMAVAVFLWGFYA
Description: • Assay for Inhibitory Effect on Human SGLT2 Activity • 1) Construction of the Plasmid Vector Expressing Human SGLT2
Preparation of the cDNA library for PCR amplification was performed by reverse transcription of a total RNA deprived from human kidney (Ori gene) with oligo dT as the primer, using SUPERSCRIPT Preamplification System (Gibco-BRL: LIFE TECHNOLOGIES). The DNA fragment coding for human SGLT2 was amplified by the PCR reaction, in which the human kidney cDNA library described above was used as the template and the following oligo nucleotides 0702F and 0712R, presented as Sequence Numbers 1 and 2 respectively, were used as the primers. The amplified DNA fragment was ligated into pCR-Blunt (Invitrogen), a vector for cloning, according to standard method of the kit. The Escherichia coli HB101 was transformed according to usual method and then selection of the transformants was performed on the LB agar medium containing 50 μg/mL of kanamycin. After plasmid DNA was extracted and purified from the one of the transformants, amplifying of the DNA fragment coding for human SGLT2 was performed by the PCR reaction, in which the following oligo nucleotides 0714F and 0715R, presented as Sequence Numbers 3 and 4 respectively, were used as the primers. The amplified DNA fragment was digested with restriction enzymes, Xho I and Hind III, and then purified with Wizard Purification System (Promega). This purified DNA fragment was inserted at the corresponding restriction sites of pcDNA3.1 (−) Myc/His—B (Invitrogen), a vector for expressing of fusion protein. The Escherichia coli HB101 was transformed according to usual method and then selection of the transformant was performed on the LB agar medium containing 100 μg/mL of ampicillin. After plasmid DNA was extracted and purified from this transformant, the base sequence of the DNA fragment inserted at the multi-cloning sites of the vector pcDNA3. 1 (−) Myc/His—B was analyzed. […] Sequentially, a clone in which valine is substituted for isoleucine-433 was obtained. This plasmid vector expressing human SGLT2 in which the peptide presented as Sequence Number 5 is fused to the carboxyl terminal alanine residue was designated KL29.
• 2) Preparation of the Cells Expressing Transiently Human SGLT2
KL29, the plasmid coding human SGLT2, was transfected into COS-7 cells (RIKEN CELL BANK RCB0539) by electroporation. Electroporation was performed with EC100 Electroporater (E-C APPARATUS CORPORATION) under the condition: 400 V, 1260 μF, 3.2×10^6 cells of COS-7 cell and 20 μg of KL29 in 800 μL of OPTI-MEM I medium (Gibco-BRL: LIFE TECHNOLOGIES) in the 0.4 cm type cuvette. After the gene transfer, the cells were harvested by centrifugation and resuspended with OPTI-MEM I medium (3.2 mL/cuvette). […]

[1] = normal mice; J. Med. Chem., Vol. 39, pp. 3920-3928 (1996); cited from earlier work

IC50 (human SGLT2)	SMILES	amount of excreted glucose [1]	inhibitory activity in human SGLT2 (human SGLT2; statement in words)
270 nM	CCc1ccc(Cc2c(O[C@@H]3O[C@H](CO)[C@@H](O)[C@H](O)[C@H]3O)nn(-c3ccccc3)c2C)cc1 [Example 18, 4-[(4-Ethylphenyl)methyl]-3-(β-D-glucopyranosyloxy)-5-methyl-1-phenyl-1H-pyrazole]		
200 nM	Cc1c(Cc2ccc(OC(C)C)cc2)c(O[C@@H]2O[C@H](CO)[C@@H](O)[C@H](O)[C@H]2O)nn1-c1ccccc1 [Example 20, 3-(β-D-Glucopyranosyloxy)-4-[(4-isopropoxyphenyl)methyl]-5-methyl-1-phenyl-1H-pyrazole]		

SMILES	IC50 (human SGLT2)	amount of excreted glucose [1]	inhibitory activity in human SGLT2 (human SGLT2; statement in words)
CSc1ccc(Cc2c(C(F)(F)F)[nH][nH]c2=O)cc1 [WAY-123783]	> 100000 nM	increased	extremely weak

— patent US7294618B2, “Glucopyranosyloxypyrazole derivatives and medicinal use thereof” (Kissei Pharmaceutical Co., Ltd., priority 2001, dated 2007)
